Where “and” joins values, the source holds several entries; their conditions need not be identical. Identical values can stand only once. Like-named read-outs stand apart in the source and are kept apart here. Values belong to the molecule of their own block, whether it stands above or below them.
Assays:
[1] = density values of samples measured in a water phantom in a computer tomograph (137 kV, 100 mA); format: physicochemical
Protocol: 3,6,9-Triaza-3,6,9-tris-(carboxymethyl)-4-(4-ethoxybenzyl)-undecanedioic acid
Disodium salt was complexed with different X-ray-absorbing metal ions and then in the case of differing concentration, the density values of the samples were measured in a water phantom since it approximately corresponded in dimensions to those of a human abdomen.

mice = test: acute toxicity (LD50) after one-time intravenous administration to mice; format: in vivo, mouse (NMRI (SPF)); details: mice (NMRI), 2 ml/minutes, deaths up to 7 days
Protocol: Study of acute toxicity (LD50) after one-time intravenous administration to mice
The contrast medium to be tested was administered to the mice in individual restraining cages (strain: NMRI (SPF); cultivator: Schering; average weight: 20 g; same sex distribution) into one of the caudal veins at a rate of 2 ml/minutes and at different dosage levels. The number of animals that died up to a fixed time was determined (3 hours, 24 hours, 3 days and 7 days).

healthy liver parenchyma = test: density enhancement of the healthy liver parenchyma in CT after infusion, patients with liver metastases (Example 16); format: in vivo, human; details: 0.35 mmol/kg, 0.25 molar solution, individual patients 1-5 (one line per patient), disodium salt
Protocol: Density enhancement of the healthy liver parenchyma 10 and 60 minutes after infusion of a 0.25 molar solution of the gadolinium(III) complex of the 3,6,9-triaza-3,6,9-tris(carboxymethyl)-4-(4-ethoxybenzyl)-undecanedioic acid disodium salt (Gd-EOB-DTPA, described in Example 8c of EP 0405704) in the case of 5 human patients with liver metastases in a dose of 0.35 mmol/kg in Houndsfield units (HU). This dose corresponds to about 16 g of the complex per 70 kg of patient.

liver metastases = test: liver CT of human patients with known liver metastases (Example 19); format: in vivo
Protocol: Gd-EOB-DTPA ([…]) was administered intravenously in an intravenous drip in the arm vein. The infusion time was 20 minutes for the dosages of 0.2 and 0.35 mmol/kg and 30 minutes for the maximum dose of 0.5 mmol/kg. […] Exclusion criteria for the patients were: […] The entire liver was measured within 20-30 seconds of a pause in breathing. The table feed rate was 8 mm/sec, the collimation 8 mm. Using a basis of pre-contrast and post-contrast images, two independent observers evaluated the number and size of the metastases qualitatively (excellent, good, moderate, minimal, no improvement) and quantitatively (measurement of the Houndsfield units).

[2] = compatibility (overall condition, vital parameters, laboratory analysis of serum and urine) in patients (Example 19); format: in vivo, human
Protocol: Fifteen human patients with known liver metastases were examined in the liver-CT 10 minutes, 60 minutes and (N=5) 120 minutes after intravenous infusion of 0.2, 0.35 or 0.5 mmol/kg of Gd-EOB-DTPA (see Example 16).
Gd-EOB-DTPA ([…]) was administered intravenously in an intravenous drip in the arm vein. The infusion time was 20 minutes for the dosages of 0.2 and 0.35 mmol/kg and 30 minutes for the maximum dose of 0.5 mmol/kg.
The compatibility of Gd-EOB-DTPA was determined by determining the overall condition, the recording of vital parameters and a laboratory analysis of serum and urine parameters.

liver [3] = details: dog; cited from earlier work
liver [4] = details: mouse; cited from earlier work
liver [5] = details: monkey; cited from earlier work
liver [6] = details: human, dose corresponding to 360 mg of iodine/kg; cited from earlier work
liver [7] = details: cited from earlier work; for concentration in the liver (fold), at 50 μg of iodine/ml: 50 μg of iodine/ml of plasma; for concentration in the liver versus plasma, at 500 μg of iodine/ml: 500 μg of iodine/ml of plasma
liver [8] = details: human, maximum compatible dose corresponding to about 7 g of iodine/70 kg; cited from earlier work
[9] = humans; cited from earlier work
[10] = 0.2, 0.35 or 0.5 mmol/kg i.v. infusion

Structure (SMILES): CCOc1ccc(CC(CN(CC(=O)[O-])CC(Cc2ccc(OCC)cc2)N(CC(=O)[O-])CC(=O)[O-])N(CC(=O)[O-])CC(=O)[O-])cc1.[Na+].[Na+].[Yb+3] (stereo not drawn) [Example 4e, Ytterbium complex of the disodium salt of 3,6,9-triaza-3,6,9-tris-(carboxymethyl)-4,8-bis-(4-ethoxybenzyl)-undecanedioic acid]
LD50 (mice): approximately 15 mmol/kg of body weight

Structure (SMILES): CNC(=O)c1c(I)c(NC(=O)COCC(=O)N(C)c2c(I)cc(I)c(C(=O)O)c2I)c(I)c(C(=O)O)c1I [SH L 433]
enhancement of the liver (liver [3]): > 40 HU | enhancement of the liver (liver [4]): > 40 HU | enhancement of the liver (liver [5]): > 40 HU | enhancement of the liver (liver [6]): < 10 HU

Structure (SMILES): O=C(COCC(=O)Nc1c(I)cc(I)c(C(=O)O)c1I)Nc1c(I)cc(I)c(C(=O)O)c1I [ioglycamate]
concentration in the liver (fold), at 5 μg of iodine per ml of plasma (liver [7]): 5 -fold | concentration in the liver (fold), at 50 μg of iodine/ml (liver [7]): ~2 -fold | concentration in the liver versus plasma, at 500 μg of iodine/ml (liver [7]): considerably lower than in the plasma

Structure (SMILES): O=C(COCCOCCOCC(=O)Nc1c(I)cc(I)c(C(=O)O)c1I)Nc1c(I)cc(I)c(C(=O)O)c1I [iotroxinate]
enhancement in the liver (liver [8]): 15 HU | excreted via the bile ducts [9]: about 90% | concentration in the liver (fold), at 5 μg of iodine per ml of plasma (liver [7]): 5 -fold | concentration in the liver (fold), at 50 μg of iodine/ml (liver [7]): ~2 -fold | concentration in the liver versus plasma, at 500 μg of iodine/ml (liver [7]): considerably lower than in the plasma

More lines, main results first:

density (HU ± SD), 50 mmol/L [1]: 226 HU | density (HU ± SD), 500 mmol/L [1]: 1840 HU
Structure (SMILES): CCOc1ccc(CC(CN(CCN(CC(=O)[O-])CC(=O)[O-])CC(=O)[O-])N(CC(=O)[O-])CC(=O)[O-])cc1.[Dy+3].[Na+].[Na+] (stereo not drawn) [Dy]

density (HU ± SD), 50 mmol/L [1]: 254 HU | density (HU ± SD), 500 mmol/L [1]: 1955 HU
Structure (SMILES): CCOc1ccc(CC(CN(CCN(CC(=O)[O-])CC(=O)[O-])CC(=O)[O-])N(CC(=O)[O-])CC(=O)[O-])cc1.[Er+3].[Na+].[Na+] (stereo not drawn) [Er]

density (HU ± SD), 50 mmol/L [1]: 218 HU | density (HU ± SD), 500 mmol/L [1]: 1680 HU | general compatibility ([2]; 0.2, 0.35 or 0.5 mmol/kg i.v. infusion, 15 patients): good | burning sensation at the infusion site or retrograde therefrom (cases) ([2]; persisted for a few seconds or minutes): two | slight increases of aspartate transferase and alaninamino transferase (patients) ([2]; probably caused by the liver metastases): three | evaluation of the laboratory parameters ([2]; serum and urine parameters): no precise trend
Structure (SMILES): CCOc1ccc(CC(CN(CCN(CC(=O)[O-])CC(=O)[O-])CC(=O)[O-])N(CC(=O)[O-])CC(=O)[O-])cc1.[Gd+3].[Na+].[Na+] (stereo not drawn) [Gd-EOB-DTPA, gadolinium(III) complex of the 3,6,9-triaza-3,6,9-tris(carboxymethyl)-4-(4-ethoxybenzyl)-undecanedioic acid disodium salt]
Density enhancement of the healthy liver parenchyma, 10 minutes p. inf. (healthy liver parenchyma; 10 minutes after infusion): 19 HU and 12 HU and 10 HU and 18 HU and 15 HU | Density enhancement of the healthy liver parenchyma, 60 minutes p. inf. (healthy liver parenchyma; 60 minutes after infusion): 26 HU and 25 HU and 17 HU and 32 HU | visualization of the metastases, all dose groups (liver metastases; 0.2, 0.35 and 0.5 mmol/kg): improved | CT density of the healthy liver (liver metastases; [10]): dose-dependent increase | CT density of the metastases (liver metastases; [10]): unchanged | visualization of the metastases, two upper dose groups (liver metastases; 0.35 and 0.5 mmol/kg): excellent | visualization of the gallbladder and the bile ducts (liver metastases; after i.v. infusion): possible | additional metastases discovered, on the average (liver metastases; maximum dose (0.5 mmol/kg)): two | average size of the smallest metastases found (liver metastases; maximum dose, decreased from 20.3 mm): 16.6 mm | diameter of additional lesion detected (liver metastases; one patient, left lobe of the liver, previously not found): 7 mm | summary as liver or gallbladder contrast medium for CT (liver metastases; summary statement): well-tolerated and effective | other side effects ([2]; 0.2, 0.35 or 0.5 mmol/kg): nausea and a sensation of pressure in the epigastric region | mild or moderate side effects observed (number) ([2]; 0.2, 0.35 or 0.5 mmol/kg, 15 patients): four

density (HU ± SD), 50 mmol/L [1]: 221 HU | density (HU ± SD), 500 mmol/L [1]: 1890 HU
Structure (SMILES): CCOc1ccc(CC(CN(CCN(CC(=O)[O-])CC(=O)[O-])CC(=O)[O-])N(CC(=O)[O-])CC(=O)[O-])cc1.[Ho+3].[Na+].[Na+] (stereo not drawn) [Ho]

density (HU ± SD), 50 mmol/L [1]: 228 HU | density (HU ± SD), 500 mmol/L [1]: 1760 HU
Structure (SMILES): CCOc1ccc(CC(CN(CCN(CC(=O)[O-])CC(=O)[O-])CC(=O)[O-])N(CC(=O)[O-])CC(=O)[O-])cc1.[Na+].[Na+].[Tb+3] (stereo not drawn) [Tb]

density (HU ± SD), 50 mmol/L [1]: 252 HU | density (HU ± SD), 500 mmol/L [1]: 1980 HU
Structure (SMILES): CCOc1ccc(CC(CN(CCN(CC(=O)[O-])CC(=O)[O-])CC(=O)[O-])N(CC(=O)[O-])CC(=O)[O-])cc1.[Na+].[Na+].[Yb+3] (stereo not drawn) [Yb, Ytterbium complex of the disodium salt of 3,6,9-triaza-3,6,9-tris-(carboxymethyl)-4-(4-ethoxybenzyl)-undecanedioic acid]

Reference: patent US5853699A, “Use of tetra azacycle complexes as x-ray diagnostic agents for the liver and gallbladder” (priority 1995, dated 1998)
